{
  "source": "paper PMC10957570",
  "about": "“Coniferyl ferulate alleviate xylene-caused hematopoietic stem and progenitor cell toxicity by Mgst2” (Frontiers in Pharmacology, 2024)",
  "target": "T1, Mgst2 (Mus musculus, UniProt A2RST1)",
  "T1 construct": "native protein in lysate of CD117+ bone marrow cells, captured on CF chip and identified by LC-MS/MS",
  "T1 sequence (A2RST1 whole entry)": "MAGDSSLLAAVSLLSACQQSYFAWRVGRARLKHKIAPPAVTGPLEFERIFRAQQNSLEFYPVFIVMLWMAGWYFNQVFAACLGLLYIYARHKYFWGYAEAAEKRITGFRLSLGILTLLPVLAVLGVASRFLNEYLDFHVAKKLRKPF",
  "test": "SPR capture from cell lysate on CF chip, LC-MS/MS identification",
  "format": "biochemical",
  "conditions": "CD117+ bone marrow cell lysate; CF immobilised; excess free CF lowered total SPR signal",
  "data": [
    {"smiles": "COc1cc(/C=C/COC(=O)/C=C/c2ccc(O)c(OC)c2)ccc1O", "note": "[Coniferyl ferulate]", "values": [
      {"measurement": "SPR capture from cell lysate on CF chip, LC-MS/MS identification", "result": "we found that Mgst2 was one of the targets of CF"}
    ]}
  ]
}
